Experiments:
[1] = system: SKBR3, MX-1, and 293T-B7-H4; assay: NK cell-mediated ADCC; type: cell-based, human; settings: NK effector cells, 4 hours
Description: Antibodies directed to cell surface antigens can elicit direct killing of antibody-coated cells, including induction of ADCC.
Human PBMCs were thawed into pre-warmed R10+ Media (RPMI 1640 (Gibco #11875-093) with 10% HI-FBS (Gibco #16140-071), 1× sodium pyruvate (Gibco #11360-070), and 1× GlutaMax (Gibco #35050-061)) and then an EasySep NK isolation kit (StemCell #17955) was used to purify NK cells. Target tumor cells were lifted off using TrypLE Express (Gibco #12604-021) and then plated into a U-bottom plate (Falcon #353077) at 40,000 cells/well (50 μL/well) for MX-1 and 293T-B7-H4 (HEK 293T cells engineered to express human B7-H4) and 20,000 cells/well (50 μL/well) for SKBR3 cell line. […] (NOTE: actual starting concentration was 6000 ng/mL to account for the inherent 3× dilution of the assay.) Then 200,000 cells/well (50 μL/well) of isolated NK cells were plated into the U-bottom plate (effector: tumor ratios were as follows: NK:SKBR3 cells 10:1; NK:MX1 cells 5:1, NK:293T-B7-H4 cells 5:1). Appropriate controls included: positive control mAb and ADC and negative non-binding control mAb and ADC, NK cells only control, target cells only control, target cells maximum lysis control, and media only control. […] A CytoTox 96 Non-Radioactive Cytotoxicity Assay kit (Promega #G1780) was used to develop the signal, which was read using 490 nm wavelength on a SpectraMax 190 instrument.

[2] = system: MDA-MB-468 xenograft model; assay: MDA-MB-468 xenograft, Study MDAMB468-6; type: in vivo, NSG mice; settings: 3 mg/kg, three weekly doses, i.p.
Protocol: Tumor volume was measured twice weekly until study day 80.
(§1) Female NSG mice were implanted with 1×10^6 MDA-MB-468 cells in 25% Matrigel H C (Corning #354248) subcutaneously. Once tumor volumes reached 100 mm^3, mice were randomized into treatment groups of 5 mice each and dosed with 0.3, 1, or 3 mg/kg every seven days for three total doses (q7dx3). Twenty-four hours prior to receiving each ADC dose, each animal was treated with 10 mg/kg hIVIG (Grifolds). Tumor volumes were measured twice per week, animals were euthanized when tumor volume reached 700-1000 mm^3. Stock concentrations of ADC were diluted to desired concentration (with 0.01% Tween20 in PBS) and injected i.p. into each treatment group

[3] = system: MDA-MB-468 xenograft model; assay: MDA-MB-468 xenograft dose range, Study MDAMB468-9; type: in vivo, NSG mice; settings: three weekly doses
Protocol: Tumor volume was measured twice weekly until study day 85.
as §1, with “implanted with 1×10^6MDA-MB-468 cells in” for “implanted with 1×10^6 MDA-MB-468 cells in”, “each treatment group.” for “each treatment group”

[4] = system: Ovarian carcinoma PDX models; assay: Ovarian carcinoma patient-derived xenograft models; type: in vivo, mice; settings: 3 mg/kg q7dx3; for % TGI: vs untreated
Protocol: Tumor size and body weight were measured twice weekly, and the study was terminated when tumors in the control group reached 1500 mm^3 or up to Day 28, whichever occurred first, or maximum up to Day 60.
Specifically, Stock mice were bilaterally implanted with fragments from one of the Champions TumorGraft® models representing human HR^+ BC or ovarian cancer. After the tumors reached 1000-1500 mm^3, they were harvested, and the tumor fragments were implanted subcutaneously (s.c.) in the left flank of the female study mice. Each animal was implanted with a specific passage lot and documented. Tumor growth was monitored twice a week using digital calipers, and the tumor volume (TV) was calculated using the formula (0.52×[length×width^2]). When the TV reached approximately 150-300 mm^3, animals were matched by tumor size and assigned into control (untreated) or treatment groups (n=3 animals/group). Each animal in the treatment groups was dosed with 3 mg/kg of ADC every seven days for three total doses (q7dx3). Tumor size and body weight were measured twice weekly, and the study was terminated when tumors in the control group reached 1500 mm^3 or up to Day 28, whichever occurred first, or maximum up to Day 60.
Inhibition of tumor growth was determined by calculating the percent TGI on the day at which animals in the control group were terminated (100%×[1−(final MTV−initial MTV of a treated group)/(final MTV−initial MTV of the control group)]). Treatment started on Day 0.

[5] = system: MDA-MB-468 xenograft tumors; assay: Gene ontology (GO) term analysis of treated MDA-MB-468 xenograft tumors; type: in vivo, NSG mice
Protocol: For RNAseq, RNA was extracted from tumors and library preparation for […] sequencing was performed using PolyA selection. RNA was sequenced using the Illumina HiSeq platform 2×150 bp configuration. RNA extraction, library preparation, and sequencing were performed by GENEWIZ. Adaptors were trimmed using cutadapt version 1.16, reads were aligned to a composite (GRCh38(h38)/GRCm38(mm10)) genome using STAR version 2.5.2. Transcripts and genes were quantitated via RSEM version 1.2.31. Quantitative and statistical differences were determined between groups of samples using DESeq2 version 1.28.1. GO term and gene set enrichment analysis was performed with clusterProfiler version 3.16.1, msigdbr version 7.1.1, AnnotationDbi version 1.50.3, org.Mm.eg.db version 3.11.4, and org.Hs.eg.db version 3.11.4. […] Only GO terms with a p-value and q-value of 0.05 or less were retained. Figures were replotted using GraphPad Prism. The raw fastq files as well as the mapped BAM files are stored on the Seagen linux storage location: /fc1/jobs/research/RNASeq/.

SGN-B7H4V: ADC of fully human IgG1 anti-B7-H4 mAb conjugated to monomethyl auristatin E (MMAE) via a protease-cleavable valine-citrulline linker (vedotin)
ADCC response [1]: comparable ADCC responses
anti-tumor activity (tumor volume) [2]: transient regression of tumor volumes in all mice
anti-tumor activity (tumor volume) ([3]; 0.3 mg/kg): minimal anti-tumor activity
anti-tumor activity (tumor volume) ([3]; 1 mg/kg): transient regression of tumor volumes in all mice
anti-tumor activity (tumor volume) ([3]; 3 mg/kg): transient regression of tumor volumes in all mice
% TGI ([4]; Ovarian_1, Day 48): 110%
% TGI ([4]; Ovarian_2, Day 41): 103%
% TGI ([4]; Ovarian_3, Day 53): 84%
% TGI ([4]; Ovarian_4, Day 52): −57%
% TGI ([4]; Ovarian_5, Day 36): 83%
% TGI ([4]; Ovarian_6, Day 23): −33%
PDX models with tumor regression or tumor growth delay (e.g. TGI>50%) ([4]; ovarian carcinoma): 4/6
human gene categories related to apoptosis/programmed cell death pathways ([5]; compared to B7H41001 mAb-DM1): elevated
mouse immune-related GO terms ([5]; compared to B7H41001 mAb-DM1): increased
human gene categories related to the immune response ([5]; compared to B7H41001 mAb-DM4): elevated
mouse immune-related gene categories ([5]; compared to B7H41001 mAb-DM4): elevated

From US20230117205A1, “B7-H4 ANTIBODY-DRUG CONJUGATES FOR THE TREATMENT OF CANCER” (SEAGEN INC., priority 2021, published 2023)
